Experimental data: patent US8314144B2, “Compounds having antitumor activity” (Defiante Farmaceutica, S.A., priority 2004, dated 2012)
Where two headings read alike, the source gives them in different places.

Tests used:
[1] = test system: human hepatocarcinoma cells (HepG2); assay: cells; details: HepG2, read-out: cell mortality
Description: The tumor cell line HepG2 was provided by ATCC (American Type Cell Culture—Mannas, Va., No. HB-8065) and subsequently developed in our laboratory. The cells were cultured in complete medium containing MEM added with 10% FCS (bovine fetal serum), 1 mM Na-pyruvate, 2 mM L-glutamine, 0.1 mM non-essential amino acids and antibiotics (penicillin/streptomycin). The medium, culture products and reagents were purchased from Hyclone-Celbio (Milan, Italy). The experimental design provided for the use of ST1326 and of known antineoplastic drugs, such as doxorubicin, against which the HepG2 cells show a high resistance, to determine the agonist action of the compound. […] In this experiment, the following compounds were added to hemiconfluent HepG2 cells in 96 well plates: • 0.25, 0.5, 5.0 μg/mL doxorubicin; • 0.1 μM ST in combination with 0.25 μg/mL doxorubicin.
After 24 hr incubation, the medium containing different concentrations of doxorubicin and the ST/doxorubicin combination was removed and the cells were washed with complete medium. After 3-day treatment, the antineoplastic effect of the test compound was determined in comparison with control cells incubated in complete medium for the same period of time.
The cell mortality was calculated as the percentage (mean±standard deviation) over 10.000 acquired events.

[2] = test system: human hepatocarcinoma cells (HepG2); assay: Cell mortality of HepG2 cells by propidium iodide flow cytofluorimetry; format: cell-based; details: for mortality at 5 µM / mortality at 20 µM: Homo sapiens
Description: (§1) The cells were seeded in 60 mm-diameter Petri dishes. After plating the cells were grown for 24 hours prior to their treatment.
(§2) In this experiment, increasing amounts of the test molecule were added to hemiconfluent HepG2 cells (Kogure et al., Cancer Chemother. Pharmacol., 2003; DOI. 10.1007/s); the antiproliferative and proapoptotic effects were determined at different times from cell seeding.
(§3) The experimental design in some cases provided for the addition of the test compound once the cell culture had been prepared, in other cases the cultures were exposed to the compound every 24 hours after suitably removing the conditioned medium and washing the cells with new (complete) medium. The cells were counted in a Bürker chamber after suitable dilution with a vital dye to visualize the living cells. In particular, the trypan blue exclusion method was used for cell count at 0, 24 and 48 hour treatment. At least 10 cell counts were performed for each experiment and each treatment was carried out in quadruple.
(§4) A further analysis involved cytofluorimetry utilizing propidium iodide as a marker for […] cells. The test compound was assayed vs. the CTP inhibitor etomoxir to verify whether the tumoricidal effect could be attributed to CPT-1 inhibition or involved novel mechanisms.
In addition, assays on cell viability were carried out using flow cytofluorimetry techniques.
In further experiments the test molecule was added every 24 hours, as above described, after suitably removing the surnatants and washing the cultures with complete medium. […] In the control, the surnatant was eliminated and complete medium alone was added to the cultures.

[3] = test system: human hepatocarcinoma cells (HepG2); assay: HepG2 cell count (trypan blue exclusion), antiproliferative and tumoricidal effect; format: cell-based; details: for number of viable cells versus control cultures (FIGURE): HepG2, less than 10 μM, after 24 hours; for antiproliferative and tumoricidal activity in vitro: tumor cell lines, same experimental conditions for etomoxir and compounds (I)
Description: as §1, §2, §3, §4
The data relating to cell viability are expressed as percentage on the number of viable cells from control cultures (=100%). (E=etomoxir; ST1326=tested compound). […] At the same concentrations etomoxir was ineffective.

[4] = test system: acute leukaemia T cells (Jurkat); assay: Cell mortality of Jurkat cells by propidium iodide flow cytofluorimetry; format: cell-based
Description: The cells were seeded in […] flasks. After plating the cells were grown for 24 hours prior to their treatment.
The experiment was carried out by adding increasing amounts of the test molecule to hemiconfluent Jurkat cells; the proapoptotic effect was determined at different times from culture preparation.
The experimental design provided for the addition of the test compound only at the start of cell culturing, and the determination of the effects at the established times. The data on cell mortality were obtained using propidium iodide flow cytofluorimetry techniques only. The fact that those cells live suspended in culture rendered these assays extremely easy to perform.
For this reason the cell mortality was determined just after 2 hour treatment and at 24, 48 and 72 hrs.
The mortality was calculated as the percentage over 10.000 acquired standard events. Since the results are almost exactly overlapping, with very low deviation in all the readings for each single experiment, the mean values of 5 cytofluorimetric readings are reported in the following Table without standard deviation.

normal PBMCs = assay: Viability test with lymphocytes (PBMCs) taken from healthy individuals; format: cell-based; details: 72 hours
Description: In addition, in order to exclude the induction of toxicity in normal PBMCs by the test molecule, viability tests were also carried out with lymphocytes taken from healthy individuals and contacted with the test compound.

[5] = test system: AH-130 Yoshida ascites hepatoma; assay: In vivo antineoplastic activity in rats bearing Yoshida tumor; parameters: species or system rat; details: 25 mg/Kg i.p., alternate days, 4 treatments, 15 animals
Description: Male Wistar rats (Morini s.r.l.) of 190-200 g weight were maintained at 22±2° C., with a light/dark cycle of 12 hours, and were given free access to water and food (standard diet). Some rats were intraperitoneally inoculated with 10×10^7 cells from AH-130 Yoshida ascites hepatoma (Llovera et al., Int. J. Cancer 61:138-41 (1995); kind gift from Prof. J M Argilès). 5-7 days after the inoculum, the rats developed an ascites that could be detected by macroscopic analysis of the abdomen.
(§5) The experimental protocol provided that 7 days after ascites induction 15 animals (treated group) received 2 ml of a buffered saline containing ST (25 mg/Kg i.p.), whereas other 15 animals (control group) received the buffered saline alone. The same treatment was conducted at alternate days for one week up to a total of 4 treatments for each animal. The dosage was selected on the basis of preliminary studies in which a 6.1 μM plasma concentration of ST was achieved 5 hr after intraperitoneal administration. The animals were subsequently kept under observation for 3 weeks (follow-up), examining the ascites effusion, the presence of subcutaneous neoplastic mass in the inoculum site, and the mortality.

[6] = Plasma concentration after intraperitoneal administration (preliminary studies); format: in vivo, rat; details: 5 hr after intraperitoneal administration
Description: as §5

## COc1cccc2c1C(=O)c1c(O)c3c(c(O)c1C2=O)C[C@@](O)(C(=O)CO)C[C@@H]3O[C@H]1C[C@H](N)[C@H](O)[C@H](C)O1 [Doxorubicina, doxorubicin]
[1]
  mortality at 0.25 µg/mL: 11.2 ± 1.5%
  mortality at 0.5 µg/mL: 22.7 ± 3.5%
  mortality at 5 µg/mL: 48.6 ± 4.1%

## CCOC(=O)[C@@]1(CCCCCCOc2ccc(Cl)cc2)CO1 [Etomoxir, etomoxir, reference compound]
[2]; HepG2, 24 h, read-out: cell mortality, HepG2, 5 μM, treated only once (time 0), 24 hours
  mortality at 5 µM: 10.8 ± 1.65%
[2]; HepG2, 24 h, read-out: cell mortality, HepG2, 20 μM, treated only once (time 0), 24 hours
  mortality at 20 µM: 13 ± 1.07%
[2]; HepG2, 48 h, read-out: cell mortality, HepG2, 5 μM, treated only once (time 0), 48 hours
  mortality at 5 µM: 11.8 ± 0.4%
[2]; HepG2, 48 h, read-out: cell mortality, HepG2, 20 μM, treated only once (time 0), 48 hours
  mortality at 20 µM: 11.2 ± 1.3%
[2]; HepG2, 72 h, read-out: cell mortality, HepG2, 5 μM, treated only once (time 0), 72 hours
  mortality at 5 µM: 10.1 ± 2.1%
[2]; HepG2, 72 h, read-out: cell mortality, HepG2, 20 μM, treated only once (time 0), 72 hours
  mortality at 20 µM: 11.7 ± 1.3%
[2]; HepG2, read-out: cell mortality, HepG2, 5 μM added every 24 hours, 48 hours (second addition)
  mortality at 5 µM: 10.2 ± 1.7%
[2]; HepG2, read-out: cell mortality, HepG2, 5 μM added every 24 hours, 72 hours (third addition)
  mortality at 5 µM: 12.6 ± 1.1%
[2]; HepG2, read-out: cell mortality, HepG2, 20 μM added every 24 hours, 48 hours (second addition)
  mortality at 20 µM: 13.9 ± 1.2%
[2]; HepG2, read-out: cell mortality, HepG2, 20 μM added every 24 hours, 72 hours (third addition)
  mortality at 20 µM: 14.1 ± 0.9%
[3]
  number of viable cells versus control cultures (FIGURE): ineffective
  antiproliferative and tumoricidal activity in vitro: did not show any antiproliferative or tumoricidal activity

## CCCCCCCCCCCCCCNC(=O)N[C@H](CC(=O)[O-])C[N+](C)(C)C [ST1326, R-4-trimethylammonium-3-(tetradecylcarbamoyl)-Aminobutyrate]
[4]; 0.1 μM, 2 hours
  cell mortality: 3%
[4]; 0.1 μM, 24 hours
  cell mortality: 4%
[4]; 0.1 μM, 48 hours
  cell mortality: 5%
[4]; 0.1 μM, 72 hours
  cell mortality: 13%
[4]; 0.25 μM, 2 hours
  cell mortality: 3%
[4]; 0.25 μM, 24 hours
  cell mortality: 5%
[4]; 0.25 μM, 48 hours
  cell mortality: 8%
[4]; 0.25 μM, 72 hours
  cell mortality: 14%
[4]; 0.50 μM, 2 hours
  cell mortality: 7%
[4]; 0.50 μM, 24 hours
  cell mortality: 15%
[4]; 0.50 μM, 48 hours
  cell mortality: 35%
[4]; 0.50 μM, 72 hours
  cell mortality: 56%
[4]; 1.0 μM, 2 hours
  cell mortality: 6%
[4]; 1.0 μM, 24 hours
  cell mortality: 79%
[4]; 1.0 μM, 48 hours
  cell mortality: 83%
[4]; 1.0 μM, 72 hours
  cell mortality: 90%
[4]; 2.5 μM, 2 hours
  cell mortality: 6%
[4]; 2.5 μM, 24 hours
  cell mortality: 91%
[4]; 2.5 μM, 48 hours
  cell mortality: 97%
[4]; 2.5 μM, 72 hours
  cell mortality: 99%
[4]; 5.0 μM, 2 hours
  cell mortality: 8%
[4]; 5.0 μM, 24 hours
  cell mortality: 99%
[4]; 5.0 μM, 48 hours
  cell mortality: 99%
[4]; 5.0 μM, 72 hours
  cell mortality: 99%
[4]; 10 μM, 2 hours
  cell mortality: 20%
[4]; 10 μM, 24 hours
  cell mortality: 99%
[4]; 10 μM, 48 hours
  cell mortality: 99%
[4]; 10 μM, 72 hours
  cell mortality: 99%
Normal PBMCs; 1.0 μM
  viability test (cell mortality) in PBMCs: 9%
Normal PBMCs; 5.0 μM
  viability test (cell mortality) in PBMCs: 10%
Normal PBMCs; 10 μM
  viability test (cell mortality) in PBMCs: 10%
Normal PBMCs; 20 μM
  viability test (cell mortality) in PBMCs: 12%
[2]; HepG2, 0.1 μM added every 24 hours, 48 hours (second addition)
  cell mortality: 45 ± 2.0%
[2]; HepG2, 0.1 μM added every 24 hours, 72 hours (third addition)
  cell mortality: 56.5 ± 1.2%
[2]; HepG2, 0.1 μM, prior experiments, partial tumoricidal effect
  cell mortality: ~50%
[2]; HepG2, 0.1 μM, treated only once (time 0), 24 hours
  cell mortality: 15.3 ± 2.1%
[2]; HepG2, 0.1 μM, treated only once (time 0), 48 hours
  cell mortality: 27.3 ± 2.2%
[2]; HepG2, 0.1 μM, treated only once (time 0), 72 hours
  cell mortality: 49.9 ± 1.2%
[2]; HepG2, 5 μM added every 24 hours, 48 hours (second addition)
  cell mortality: 64.7 ± 1.7%
[2]; HepG2, 5 μM added every 24 hours, 72 hours (third addition)
  cell mortality: 89.7 ± 1.4%
[2]; HepG2, 5 μM, treated only once (time 0), 24 hours
  cell mortality: 25.78 ± 1.70%
[2]; HepG2, 5 μM, treated only once (time 0), 48 hours
  cell mortality: 56.29 ± 1.51%
[2]; HepG2, 5 μM, treated only once (time 0), 72 hours
  cell mortality: 93.48 ± 1.5%
[2]; HepG2, 10 μM added every 24 hours, 48 hours (second addition)
  cell mortality: 87.5 ± 2.03%
[2]; HepG2, 10 μM added every 24 hours, 72 hours (third addition)
  cell mortality: 91.3 ± 1.9%
[2]; HepG2, 10 μM, treated only once (time 0), 24 hours
  cell mortality: 53.21 ± 1.5%
[2]; HepG2, 10 μM, treated only once (time 0), 48 hours
  cell mortality: 85.10 ± 0.9%
[2]; HepG2, 10 μM, treated only once (time 0), 72 hours
  cell mortality: 96.3 ± 1.1%
[2]; HepG2, 20 μM added every 24 hours, 48 hours (second addition)
  cell mortality: 93.9 ± 1.03%
[2]; HepG2, 20 μM added every 24 hours, 72 hours (third addition)
  cell mortality: 98.1 ± 0.9%
[2]; HepG2, 20 μM, treated only once (time 0), 24 hours
  cell mortality: 88.22 ± 1.9%
[2]; HepG2, 20 μM, treated only once (time 0), 48 hours
  cell mortality: 89.10 ± 0.17%
[2]; HepG2, 20 μM, treated only once (time 0), 72 hours
  cell mortality: 98.51 ± 1.3%
[3]
  number of viable cells versus control cultures (FIGURE): remarkable reduction in the number of cells
  antiproliferative and tumoricidal activity in vitro: in vitro antiproliferative effect associated with a significant tumoricidal activity
[5]
  Presence of cachexy (No. of animals): 1
  Presence of tumor cells in the abdominal cavity (post-mortem examination) (No. of animals): 0
  Presence of tumor mass in the inoculum site (No. of animals): 0
  Survival at 1 week follow-up (No. of survived animals): 15
  Survival at 2 week follow-up (No. of survived animals): 15
  Survival at 3 week follow-up (No. of survived animals): 15
[6]
  plasma concentration: 6.1 µM
